Earlier results as cited in patent publication US11260065B2, “Storage-stable ready-to-use injectable formulations of thiotepa” (RK Pharma Solutions LLC, priority 2018, dated 2022).

Legend:
[1] = water and organic solvents
[2] = acid medium

For S=P(N1CC1)(N1CC1)N1CC1 [Thiotepa, tris(1-aziridinyl)phosphine sulfide], the Solubility [1] is listed as “soluble in water and organic solvents” and the Stability [2] is listed as “unstable in acid medium”.
